Data on nine molecules can be found in patent publication US10683307B2, “Compounds for use in antibacterial applications” (GLAXOSMITHKLINE INTELLECTUAL PROPERTY DEVELOPMENT LIMITED, priority 2015, dated 2020).

Each structure is given as a SMILES string. Counter-ions that a name gives are not always drawn. Like-named read-outs stand apart in the source and are kept apart here.

Test systems include Enterococcus faecalis; Staphylococcus aureus; Streptococcus pyogenes; Streptococcus agalactiae; Bacteroides fragilis; Bacteroides caccae; Bacteroides ovatus.
What all share (type): cell-based
Another test has as its system Moraxella catarrhalis. As to conditions: unit inferred.
The test system of a further test is Legionella pneumophila. The conditions noted are these: Table 1 column G = Legionella pneumophila; unit inferred.
In another test the test system is citrobacter spp. The conditions noted are these: Table 1 column L = citrobacter spp; unit inferred.
A further test concerns Burkholderia cepacia. The arrangement: unit not given beside the values. The conditions noted are these: unit not given.
A further test deals with Serratia marcescens. As to conditions: Table 1 column N = Serratia marcescens; unit inferred.
The subject of another test is Providencia rettgeri. As to conditions: Table 1 column O = Providencia rettgeri; unit inferred.
The subject of a further test is E. faecium. As to conditions: G1 = E. faecium.
Another test relates to Yersinia pestis. The test is described as follows: microbe, parasite or virus in culture.
For another test, the system named is Bacillus anthracis. The test is described as follows: microbe, parasite or virus in culture.
For a further test, the system named is Francisella tularensis. Description: microbe, parasite or virus in culture.
Test [1] relates to Mycobacterium tuberculosis H37Rv. Description: Mycobacterium Tuberculosis H37Rv Inhibition Assay. The conditions noted are these: H37Rv strain, Middlebrook 7H9+ADC, resazurin fluorescence; for MIC: H37RV.
In a further test the test system is Streptococcus pneumonia. The conditions noted are these: Streptococcus pneumoniae.
The next test has as its system Burkholderia mallei. The conditions noted are these: Table 3 column D4 = Burkholderia mallei.
Test [2] concerns Burkholderia pseudomallei. The conditions noted are these: Table 3 column E4 = Burkholderia pseudomallei.
In test [3] the test system is Bacteroides thetaiotamicron.

Broadly, the MIC is the smallest concentration in the dilution series that meets the test's criterion for growth inhibition. Take `COc1ccc2ncc(=O)n(CCN3CC[C@@H](CNCc4ncc5c(n4)NC(=O)CO5)C3)c2n1` [Formula (VII) HCl salt, 2-({[((3S)-1-{2-[6-(methyloxy)-3-oxopyrido[2,3-b]pyrazin-4(3H)-yl]ethyl}-3-pyrrolidinyl)methyl]amino}methyl)-1H-pyrimido[5,4-b][1,4]oxazin-7(6H)-one]: the MIC90 is < 0.016 µg/mL with Moraxella catarrhalis; ≤ 0.06 µg/mL in the test with Legionella pneumophila; ≤ 0.5 µg/mL against citrobacter spp; ≤16 with Burkholderia cepacia; ≤ 2 µg/mL against Serratia marcescens; ≤ 1 µg/mL with Providencia rettgeri. For the same molecule, the MIC90 in the test with Enterococcus faecalis (read-out: MIC90) is ≤ 0.5 µg/mL; against E. faecium it was ≤0.5 µg/mL; with Yersinia pestis (Yersinia pestis) it was ≤ 0.12 µg/mL; against Bacillus anthracis (Bacillus anthracis), ≤ 0.12 µg/mL; against Francisella tularensis (Francisella tularensis), ≤ 0.03 µg/mL. In addition, the MIC in test [1] is ≤ 0.3 µg/mL.

`COc1ccc2ncc(=O)n(CCN3CC[C@@H](CNCc4ncc5c(n4)NC(=O)CO5)C3)c2n1` [Formula (VII) free base, 2-({[((3S)-1-{2-[6-(methyloxy)-3-oxopyrido[2,3-b]pyrazin-4(3H)-yl]ethyl}-3-pyrrolidinyl)methyl]amino}methyl)-1H-pyrimido[5,4-b][1,4]oxazin-7(6H)-one]: the MIC90 is < 0.016 µg/mL against Moraxella catarrhalis, ≤8 against Burkholderia cepacia, ≤0.25 µg/mL against Enterococcus faecalis and ≤0.125 µg/mL against E. faecium. Also, the “H37Rv MIC” value in test [1] is ≤0.16 µg/mL.

Turning to `Cn1cc(C(=O)O)c(=O)c2c(CC[C@H]3CC[C@H](NCc4cnc5c(n4)NC(=O)CS5)CC3)c(F)cc(F)c21` [Compound Z, TFA salt, 6,8-difluoro-1-methyl-4-oxo-5-(2-((1r,4s)-4-(((3-oxo-3,4-dihydro-2H-pyrazino [2,3-b][1,4]thiazin-6-yl)methyl)amino)cyclohexyl)ethyl)-1,4-dihydroquinoline-3-carboxylic acid], the MIC in test [1] is ≤ 0.1 µg/mL.

Consider `COc1cnc2ccc(F)c(CN[C@H]3CC[C@H](NCc4cnc5c(n4)NC(=O)CO5)C[C@H]3O)c2n1.Cl` [Compound W, 6-({[(1S,3R,4S)-4-{[(6-fluoro-3-methoxyquinoxalin-5-yl)methyl]amino}-3-hydroxycyclohexyl]amino}methyl)-2H,3H,4H-pyrazino[2,3-b][1,4]oxazin-3-one], for which the MIC90 in the test on Burkholderia cepacia is ≤16; against Staphylococcus aureus, ≤ 0.125 µg/mL; with Streptococcus pneumonia it was ≤ 0.5 µg/mL; in the test with Streptococcus pyogenes, ≤ 0.125 µg/mL; in the test with Yersinia pestis (Yersinia pestis), ≤ 0.125 µg/mL; against Bacillus anthracis (Bacillus anthracis), ≤ 0.5 µg/mL. The MIC90 in the test with Francisella tularensis (Francisella tularensis) is ≤ 0.125 µg/mL.

For `COc1ccc2ccc(=O)n(CCN3C[C@H](CNCc4cnc5c(n4)NC(=O)CS5)[C@H](O)C3)c2n1` [Compound Y, HCl salt, 1-{2-[(3S,4S)-3-hydroxy-4-{[({3-oxo-2H,3H,4H-pyrazino[2,3-b][1,4]thiazin-6-yl}methyl)amino]methyl}pyrrolidin-1-yl]ethyl}-7-methoxy-1,2-dihydro-1,8-naphthyridin-2-one], in [1], the MIC is ≤ 0.02 µg/mL.

For `COc1cnc2ccc(F)c(CN[C@H]3CC[C@H](NCc4cnc5c(n4)NC(=O)CO5)C[C@H]3O)c2n1.Cl` [Compound W, HCl salt, 6-(((1S,3R,4S)-4-((7-Fluoro-2-methoxyquinoxalin-8-yl)methylamino)-3-hydroxycyclohexylamino)methyl)-2H-pyrazino[2,3-b][1,4]oxazin-3(4H)-one Hydrochloride], in test [1], the MIC is ≤ 0.02 µg/mL.

Take `COc1cnc2ccc(F)c(CNC3CCC(NCc4cnc5c(n4)NC(=O)CO5)CC3)c2n1.Cl` [Formula (V) HCl salt, 6-((((1R,4R)-4-(((6-fluoro-3-methoxyquinoxalin-5-yl)methyl)amino)cyclohexyl)amino)methyl)-2H-pyrazino[2,3-b][1,4]oxazin-3(4H)-one, Hydrochloride]: the MIC90 is ≤ 0.25 µg/mL in the test with citrobacter spp; ≤8 against Burkholderia cepacia; ≤ 4 µg/mL with Serratia marcescens; ≤ 0.5 µg/mL against Providencia rettgeri; ≤2 µg/mL with Streptococcus agalactiae; ≤0.12 µg/mL with Yersinia pestis (Table 3 column A4 = Yersinia pestis). In addition, the MIC90 in the test on Bacillus anthracis (Table 3 column B4 = Bacillus anthracis) was ≤0.25 µg/mL; in the test on Francisella tularensis (Table 3 column C4 = Francisella tularensis), ≤0.5 µg/mL; with Burkholderia mallei, ≤4 µg/mL; in test [2], ≤4 µg/mL. Moreover, the minimum inhibitory concentration (MIC) against Bacteroides fragilis was ≤0.5 µg/mL; with Bacteroides caccae, ≤4 µg/mL; against Bacteroides ovatus, ≤2 µg/mL; in test [3] it was ≤1 µg/mL. Besides, the “H37Rv MIC” value in [1] is ≤0.3 µg/mL.

In the case of `COc1cnc2ccc(F)c(CN[C@@H]3CC[C@@H](NCc4cnc5c(n4)NC(=O)CO5)C[C@@H]3O)c2n1.Cl` [Formula (VI) HCl salt, 6-((((1R,3S,4R)-4-(((6-fluoro-3-methoxyquinoxalin-5-yl)methyl)amino)-3-hydroxycyclohexyl)amino)methyl)-2H-pyrazino[2,3-b][1,4]oxazin-3(4H)-one Hydrochloride], the MIC90 in the test on Burkholderia cepacia was ≤8; against Staphylococcus aureus it was ≤ 0.125 µg/mL; with Streptococcus pneumonia it was ≤ 0.25 µg/mL; with Streptococcus pyogenes, ≤ 0.063 µg/mL; against Yersinia pestis (Yersinia pestis), ≤ 0.125 µg/mL; against Bacillus anthracis (Bacillus anthracis), ≤ 0.25 µg/mL. Also, the MIC90 in the test on Francisella tularensis (Francisella tularensis) was ≤ 0.063 µg/mL. Further, in [1], the MIC was ≤ 0.02 µg/mL.

`COc1cnc2ccc(F)c(CN[C@H]3CC[C@H](NCc4cnc5c(n4)NC(=O)CO5)CC3)c2n1` [Formula (V) free base, 6-((((1R,4R)-4-(((6-fluoro-3-methoxyquinoxalin-5-yl)methyl)amino)cyclohexyl)amino)methyl)-2H-pyrazino[2,3-b][1,4]oxazin-3(4H)-one]: the MIC90 was < 0.016 µg/mL against Moraxella catarrhalis; ≤ 0.5 µg/mL in the test on Enterococcus faecalis (read-out: MIC90); ≤ 0.5 µg/mL in the test on E. faecium (Enterococcus faecium, read-out: MIC90). Besides, the MIC in [1] was ≤ 0.02 µg/mL.
